Results: patent US20080026996A1, “Selective Vpac2 Receptor Reptide Agonists” (ELI LILLY AND COMPANY, priority 2004, published 2008)
Where a SMILES comes first, the peptide text is derived from it. Where no end group is shown, it is not given here. [ ]: non-standard residue; d: D form. The star is where a group is joined. Hexanoyl = CCCCCC(=O)*; Aib = CC(C)(N)C(=O)O

Experiments:
human VPAC2 [1] = molecular target: T1, human VPAC2 (Homo sapiens, UniProt P41587); assay: Filter binding assay, membranes of stable VPAC2 cell line, 125I-labeled VIP tracer (Table 2); conditions: read-out: Human VPAC2 Receptor Binding
T1 construct: expressed in transfected cells
T1 sequence (P41587 24-438): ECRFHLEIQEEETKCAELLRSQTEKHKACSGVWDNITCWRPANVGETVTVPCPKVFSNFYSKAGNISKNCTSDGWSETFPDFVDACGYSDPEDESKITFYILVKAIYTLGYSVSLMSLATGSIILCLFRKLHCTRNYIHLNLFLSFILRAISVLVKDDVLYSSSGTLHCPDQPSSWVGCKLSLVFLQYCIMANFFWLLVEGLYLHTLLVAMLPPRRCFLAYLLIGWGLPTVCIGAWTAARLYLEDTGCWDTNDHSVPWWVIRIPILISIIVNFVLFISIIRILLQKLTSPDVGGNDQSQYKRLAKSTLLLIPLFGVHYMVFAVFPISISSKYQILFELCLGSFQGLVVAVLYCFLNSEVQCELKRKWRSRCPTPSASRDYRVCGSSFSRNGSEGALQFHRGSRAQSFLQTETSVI
Outline: (§1)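 Radioligand displacement was measured with 2.5 μg membrane protein per well and roughly 40000 cpm of iodinated tracer. After a 1-hour incubation, bound and free label were separated on BSA-blocked glass-fibre filters and quantified by scintillation.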

[2] = Rat serum stability studies (remaining active peptide by DiscoveRx cAMP on CHO-VPAC2 cells); format: in vitro ADME
Outline: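 EC50 from a DiscoveRx cAMP read-out on CHO-VPAC2 cells indexes how much peptide stays active after 18 h in rat serum at 37° C without aprotinin, against an aprotinin-protected 4° C aliquot.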

human VPAC1 = molecular target: T2, human VPAC1 (Homo sapiens, UniProt P32241); assay: Filter binding assay, membranes of cells transiently transfected with human VPAC1, 125I-labeled VIP tracer (Table 2); design: expressed in transfected cells; conditions: read-out: Human VPAC1 Receptor Binding
T2 sequence (P32241 31-457): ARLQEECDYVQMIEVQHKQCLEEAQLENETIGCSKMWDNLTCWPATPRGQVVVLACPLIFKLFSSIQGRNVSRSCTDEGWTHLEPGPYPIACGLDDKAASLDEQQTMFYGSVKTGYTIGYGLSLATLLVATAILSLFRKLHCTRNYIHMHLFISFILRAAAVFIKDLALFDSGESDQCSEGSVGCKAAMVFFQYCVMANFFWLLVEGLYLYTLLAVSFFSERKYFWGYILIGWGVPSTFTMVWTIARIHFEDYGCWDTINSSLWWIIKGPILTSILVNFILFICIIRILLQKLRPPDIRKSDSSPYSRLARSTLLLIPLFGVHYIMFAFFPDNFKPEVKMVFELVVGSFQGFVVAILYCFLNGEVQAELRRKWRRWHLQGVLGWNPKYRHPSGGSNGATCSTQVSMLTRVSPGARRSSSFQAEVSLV
Outline: as §1

human PAC1 = molecular target: T3, human PAC1 (Homo sapiens, UniProt P41586); assay: Filter binding assay, membranes of cells transiently transfected with human PAC1, 125I-labeled PACAP-27 tracer (Table 2); design: expressed in transfected cells; conditions: read-out: Human PAC1 Receptor Binding
T3 sequence (P41586 21-468): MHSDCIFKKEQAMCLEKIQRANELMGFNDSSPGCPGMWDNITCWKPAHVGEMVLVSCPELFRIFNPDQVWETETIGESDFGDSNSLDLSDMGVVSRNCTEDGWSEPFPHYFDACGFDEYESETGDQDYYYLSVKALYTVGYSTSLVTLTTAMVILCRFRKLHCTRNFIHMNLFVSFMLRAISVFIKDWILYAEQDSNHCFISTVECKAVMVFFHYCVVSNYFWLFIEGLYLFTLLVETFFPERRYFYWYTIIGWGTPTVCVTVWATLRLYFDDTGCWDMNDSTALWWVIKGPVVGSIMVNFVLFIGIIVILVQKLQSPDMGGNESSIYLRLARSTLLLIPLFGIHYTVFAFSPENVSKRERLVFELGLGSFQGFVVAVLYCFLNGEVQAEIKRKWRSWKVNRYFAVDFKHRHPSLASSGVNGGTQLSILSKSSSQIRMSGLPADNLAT
Outline: as §1

human VPAC2 [3] = molecular target: T1, human VPAC2; assay: Alpha screen cAMP in vitro potency, human VPAC2 receptor; format: cell-based; conditions: cAMP generation; single result from two analyses performed in a single run; read-out: Human VPAC2 Receptor: Alpha Screen EC50
Outline: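 Dissociated cells, 50,000 per point in stimulation buffer, were incubated with stimuli and AlphaScreen acceptor beads for 60 min.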

Compound	IC50 (human VPAC2 [1]) [nM]	Rat Serum Stability (estimated purity in % after 18 hours) [2] [%]	IC50 (human VPAC1) [nM]	IC50 (human PAC1) [nM]	EC50 (human VPAC2 [3]) [nM]
Hexanoyl-HSDAVFTDNYTRLRKQVAAKRYLQSIKNKRYGGPSSGAPPPS [Agonist P182]	0.17	0.15	205	429	0.29
Hexanoyl-HSDALFTDNYTRLRKQVAAKKYLQSIKNKRYGGPSSGAPPPS [Agonist P289]	0.38	0.04	260	324	0.16
Hexanoyl-HSDAVFTDNYTRLQKQVAAKKYLQSIKNKRYGGPSSGAPPPS [Agonist P172]	3.58	5.95	412	500	0.29
Hexanoyl-HGEGTFTDNYTRLRKQVAAKKYLQSIKNKRYGGPSSGAPPPS [Agonist P222]	1.05	0.23	177	466	0.51
Hexanoyl-HSDAVFTDNYTRLRKQVAAKKY[Aib]QSIKNKRYGGPSSGAPPPS [Agonist P236]	0.37	0.79	589	225	0.12
Hexanoyl-HSDAVFTDNYTRLRKQVAAWKYLQSIKNKRYGGPSSGAPPPS [Agonist P153]	0.7	<0.16	181	1130	0.11
Hexanoyl-HSDAVFTDNYTRLRKQVAATKYLQSIKNKRYGGPSSGAPPPS [Agonist P152]	0.37	0.06	514	672	0.17
Hexanoyl-HSDAVFTDNYTRLRKQVAAKKYIQSIKNKRYGGPSSGAPPPS [Agonist P233]	0.31	1.27	323	320	0.11
Hexanoyl-HSDAVFTDNYTRLRAQVAAKKYLQSIKNKRYGGPSSGAPPPS [Agonist P139]	0.34	0.33	235	> 25000	0.2
Hexanoyl-HSDAVFTDNYTRLRKQVAAKKYLQSFKNKRYGGPSSGAPPPS [Agonist P106]	0.22	0.11	118	1820	0.16
CCCCCC(=O)N[C@@H](Cc1c[nH]cn1)C(=O)N[C@@H](CO)C(=O)N[C@@H](CC(=O)O)C(=O)N[C@@H](C)C(=O)N[C@H](C(=O)N[C@@H](Cc1ccccc1)C(=O)N[C@H](C(=O)N[C@@H](CC(=O)O)C(=O)N[C@@H](CC(N)=O)C(=O)N[C@@H](Cc1ccc(O)cc1)C(=O)N[C@H](C(=O)N[C@@H](CCCNC(=N)N)C(=O)N[C@@H](CC(C)C)C(=O)N[C@@H](CCCNC(=N)N)C(=O)NC(C)(C)C(=O)N[C@@H](CCC(N)=O)C(=O)N[C@H](C(=O)N[C@@H](C)C(=O)N[C@@H](C)C(=O)N[C@@H](CCCCN)C(=O)NC(C)(C)C(=O)N[C@@H](Cc1ccc(O)cc1)C(=O)N[C@@H](CC(C)C)C(=O)N[C@@H](CCC(N)=O)C(=O)N[C@@H](CO)C(=O)N[C@H](C(=O)N[C@@H](CCCCN)C(=O)N[C@@H](CCC(N)=O)C(=O)N[C@@H](CCCCN)C(=O)NCC(=O)NCC(=O)N1CCC[C@H]1C(=O)N[C@@H](CO)C(=O)N[C@@H](CO)C(=O)NCC(=O)N[C@@H](C)C(=O)N1CCC[C@H]1C(=O)N1CCC[C@H]1C(=O)N1CCC[C@H]1C(=O)N[C@@H](CO)C(=O)O)[C@@H](C)CC)C(C)C)[C@@H](C)O)[C@@H](C)O)C(C)C [Agonist P295] (Hexanoyl-HSDAVFTDNYTRLR[Aib]QVAAK[Aib]YLQSIKQKGGPSSGAPPPS-OH; C-terminus assumed)	0.75	22.22	> 3000	> 25000	0.39
Hexanoyl-HSD[Aib]VFTDNYTRLRKQVAAKKYLQSIKNKRYGGPSSGAPPPS [Agonist P209]	0.2	0.13	130	343	0.1
Hexanoyl-HVDAVFTDNYTRLRKQVAAKKYLQSIKNKRYGGPSSGAPPPS [Agonist P99]	1.72	0.61	394	2060	0.14
Hexanoyl-HSDAVFTDNYTRLRAQLAAQKYLQSIKNKRYGGPSSGAPPPS [Agonist P142]	0.58	0.51	364	1190	0.15
Hexanoyl-HSDAVFTKNYTRLRKQVAAKKYLQSIKNKRYGGPSSGAPPPS [Agonist P160]	4.77	<4.25	50.3	262	13.2
Hexanoyl-HSDAVFTDNYTRLRKQVAAYKYLQSIKNKRYGGPSSGAPPPS [Agonist P147]	0.24	0.07	107	464	0.13
Hexanoyl-HSDAVFTDNYTRLRKQVAAKKYVQSIKNKRYGGPSSGAPPPS [Agonist P234]	0.33	0.69	641	248	0.16
Hexanoyl-HSDAVFTDNYTRLRRQVAAKKYLQSIKNKRYGGPSSGAPPPS [Agonist P176]	6.88	<0.14	93	227	0.28
Hexanoyl-HSDAVFTDNYTRLLKQVAAKKYLQSIKNKRYGGPSSGAPPPS [Agonist P174]	55.1	1.91	302	621	0.26
